Several values for one entry are separate records, joined by “and”; a condition that tells them apart may be missing. Identical values can stand only once.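 The compound was tested at five concentrations on cells cultured in 96-well plates, with a 48-hour exposure period. The concentration for 50% growth inhibition is given as GI50. The concentration for full growth arrest is given as TGI.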
Assays:
Assay in all cases: NCI anticancer screen, dose series, 48 h
A498 renal = tested on: A498 renal
EKVX NSCLC = tested on: EKVX NSCLC
HCC-2998 colon = tested on: HCC-2998 colon
HCT-116 colon = tested on: HCT-116 colon
HL-60(TB) leukemia = tested on: HL-60(TB) leukemia
HS 578T breast = tested on: HS 578T breast
IGROV1 ovarian = tested on: IGROV1 ovarian
M14 melanoma = tested on: M14 melanoma
OVCAR-3 ovarian = tested on: OVCAR-3 ovarian
OVCAR-4 ovarian = tested on: OVCAR-4 ovarian
OVCAR-5 ovarian = tested on: OVCAR-5 ovarian
SK-MEL-5 melanoma = tested on: SK-MEL-5 melanoma
SK-OV-3 ovarian = tested on: SK-OV-3 ovarian
SN12C renal = tested on: SN12C renal
SNB-75 CNS = tested on: SNB-75 CNS
SW-620 colon = tested on: SW-620 colon
U251 CNS = tested on: U251 CNS
HCT-15 colon = tested on: HCT-15 colon

SMILES | TGI (A498 renal) | TGI (EKVX NSCLC) | TGI (HCC-2998 colon) | TGI (HCT-116 colon) [µM] | TGI (HL-60(TB) leukemia) | TGI (HS 578T breast) [µM] | TGI (IGROV1 ovarian) | TGI (M14 melanoma) [µM] | TGI (OVCAR-3 ovarian) | TGI (OVCAR-4 ovarian) [µM] | TGI (OVCAR-5 ovarian) [µM] | TGI (SK-MEL-5 melanoma) [µM] | TGI (SK-OV-3 ovarian) [µM] | TGI (SN12C renal) | TGI (SNB-75 CNS) [µM] | TGI (SW-620 colon) | TGI (U251 CNS) | TGI (HCT-15 colon) [µM] | GI50 (IGROV1 ovarian) [µM] | GI50 (M14 melanoma) [µM]
COc1ccc(C2=CN3CCC[C@H]3C=C2c2cc(O)c(OC)c(OC)c2)cc1OC | 0.0269 µM and 0.062 µM | 0.228 µM and 1.82 µM | 0.0412 µM and 0.0431 µM | 0.0108 | 0.161 µM and 0.0175 µM | 0.036 | 0.3 µM and 0.0857 µM | 0.0204 | 0.0669 µM and 0.0274 µM | 0.0374 | 0.127 | 0.015 | 0.221 | 0.0568 µM and 0.189 µM | 0.00947 | 0.0578 µM and 0.0206 µM | 0.105 µM and 0.28 µM |  |  | 
O=C1C[C@H](c2ccccc2)C2(C(=O)c3ccccc3C2=O)[C@H](c2ccccc2)C1 | > 100 µM |  | > 100 µM | > 100 | > 100 µM | > 100 | > 100 µM | > 100 | > 100 µM | > 100 | > 100 | > 100 | > 100 | > 100 µM | > 100 |  | > 100 µM | > 100 |  | 
COc1cc(CNc2nc3cc(C(F)(F)F)ccc3nc2C)cc(OC)c1OC |  | 67.4 µM | 37.8 µM | 72.2 | 51.9 µM | 39.7 | 33.3 µM | 30.8 | > 100 µM |  |  | 46.9 |  | 30.8 µM | 57.1 | 33.6 µM | 36.7 µM | 32.8 |  | 
c1ccc(Nc2nnc(-c3nsc4ccccc34)o2)cc1 |  | > 100 µM | > 100 µM | > 100 | > 100 µM |  | > 100 µM | > 100 | 45.2 µM | > 100 | > 100 | > 100 |  | > 100 µM | 78.4 | > 100 µM | > 100 µM | > 100 |  | 
CC1(C)[C@@H]2C[C@H]1C(Cc1cccc(C[C@H]3c4cc(-c5ccccn5)ncc4[C@H]4C[C@@H]3C4(C)C)c1)c1cc(-c3ccccn3)ncc12 (stereo partly specified) | > 57 µM | > 46.8 µM | > 100 µM | > 100 |  | > 100 | > 100 µM | 8.45 | 37.2 µM | > 100 | > 100 | > 35.8 | > 33.4 | > 100 µM | > 100 | > 45.6 µM | 16.3 µM | > 53 | 0.662 | 0.858
